Results published in patent US20120225885A1, “IMIDAZOLE DERIVATIVES AND METHODS OF USE THEREOF” (priority 2009, published 2012).

Each molecule was assayed against H3 receptor (UniProt Q9Y5N1) (assay: H3 Receptor Binding Assay). Conditions: displacement of 3 nM [3H]R-α-methyl histamine or [3H]Nα-methyl histamine; membranes from guinea pig brain, alternatively recombinant human receptor in HEK-293 cells; 30° C., 30 minutes; read-out: H3 Ave Ki.
Procedure: The source of the H3 receptors in this experiment was guinea pig brain. Alternatively, the source of H3 receptors was recombinant human receptor, expressed in HEK-293 (human embryonic kidney) cells.
The animals weighed 400-600 g. The brain tissue was homogenized with a solution of 50 mM Tris, pH 7.5. The final concentration of tissue in the homogenization buffer was 10% w/v. The homogenates were centrifuged at 1,000×g for 10 minutes. in order to remove clumps of tissue and debris. The resulting supernatants were then centrifuged at 50,000×g for 20 minutes in order to sediment the membranes, which were next washed three times in homogenization buffer (50,000×g for 20 minutes. each). The membranes were frozen and stored at −70° C. until needed.
Compounds of the invention to be tested were dissolved in DMSO and then diluted into the binding buffer (50 mM Tris, pH 7.5) such that the final concentration was 2 μg/ml with 0.1% DMSO. Membranes were then added (400 μg of protein, 5 μg in the case of recombinant human receptor) to the reaction tubes. The reaction was started by the addition of 3 nM [^3H]R-α-methyl histamine (8.8 Ci/mmol) or 3 nM [^3H]N^α-methyl histamine (80 Ci/mmol) and continued under incubation at 30° C. for 30 minutes. Bound ligand was separated from unbound ligand by filtration, and the amount of radioactive ligand bound to the membranes was quantitated by liquid scintillation spectrometry. All incubations were performed in duplicate and the standard error was always less than 10%. Compounds that inhibited more than 70% of the specific binding of radioactive ligand to the receptor were serially diluted to determine a Ki (nM).

Row | Compound | Ki [nM]
1 | C[C@@H]1CCCN1CCc1cn2cc(-c3ccc(N(C)C)cc3)ccc2n1 [Compound 4] | 106
2 | C[C@@H]1CCCN1CCc1cn2cc(-n3ncccc3=O)ccc2n1 [Compound 3] | 76.8
3 | COc1ccc(-c2ccc3nc(CCN4CCC[C@H]4C)cn3c2)cc1 [Compound 5] | 91.8
4 | C[C@@H]1CCCN1CCc1cn2cc(-c3ccc4[nH]ccc4c3)ccc2n1 [Compound 21] | 459
5 | C[C@@H]1CCCN1CCc1cn2cc(-c3cncnc3)ccc2n1 [Compound 24] | 366
6 | C[C@@H]1CCCN1CCc1cn2cc(-c3cnc(N)cn3)ccc2n1 [Compound 25] | 246
7 | C[C@@H]1CCCN1CCc1cn2cc(-c3cccc4ncccc34)ccc2n1 [Compound 20] | 104
8 | COc1ccccc1-c1ccc2nc(CCN3CCC[C@H]3C)cn2c1 [Compound 10] | 163
9 | C[C@@H]1CCCN1CCc1cn2ccc(Br)cc2n1 [Compound 12] | 101
10 | C[C@@H]1CCCN1CCc1cn2cc(-c3ccccc3F)ccc2n1 [Compound 11] | 74
11 | C[C@@H]1CCCN1CCc1cn2cc(Br)ccc2n1 [Compound 1] | 327

These reach a lower Ki. Values come first.

Row | Ki [nM] | Compound
12 | 69 | C[C@@H]1CCCN1CCc1cn2cc(-c3ccc(=O)n(C)c3)ccc2n1 [Compound 22]
13 | 36.5 | C[C@@H]1CCCN1CCc1cn2ccc(-c3ccc(F)nc3)cc2n1 [Compound 19]
14 | 67.5 | CC(=O)Nc1ccc(-c2ccc3nc(CCN4CCC[C@H]4C)cn3c2)cc1 [Compound 8]
15 | 7.1 | Cc1nnc2ccc(-c3ccc4nc(CCN5CCC[C@H]5C)cn4c3)cn12 [Compound 26]
16 | 70 | CCOc1cccc(-c2ccn3cc(CCN4CCC[C@H]4C)nc3c2)c1 [Compound 14]
17 | 13 | C[C@@H]1CCCN1CCc1cn2cc(-c3cccc(C#N)c3)ccc2n1 [Compound 9]
18 | 22 | C[C@@H]1CCCN1CCc1cn2cc(-c3cnc(N)c(C#N)c3)ccc2n1 [Compound 23]
19 | 4 | C[C@@H]1CCCN1CCc1cn2cc(-c3ccc(F)c(C#N)c3)ccc2n1 [Compound 16]
20 | 11.2 | C[C@@H]1CCCN1CCc1cn2cc(-c3ccc4ncccc4c3)ccc2n1 [Compound 17]
21 | 58.5 | C[C@@H]1CCCN1CCc1cn2cc(-c3ccc(F)cc3)ccc2n1 [Compound 6]
22 | 27 | C[C@@H]1CCCN1CCc1cn2cc(-c3ccc(C#N)cc3)ccc2n1 [Compound 2]
23 | 38.6 | C[C@@H]1CCCN1CCc1cn2cc(-c3cncc(C#N)c3)ccc2n1 [Compound 18]
24 | 64.5 | C[C@@H]1CCCN1CCc1cn2cc(-c3ccc(O)cc3)ccc2n1 [Compound 7]
25 | 25 | C[C@@H]1CCCN1CCc1cn2ccc(-c3ccccc3F)cc2n1 [Compound 15]
26 | 34 | C[C@@H]1CCCN1CCc1cn2ccc(-c3ccc(C#N)cc3)cc2n1 [Compound 13]
